{"source": "patent US4202891A", "about": "“15-Oxygenated sterol compounds and the use of such compounds to inhibit the biosynthesis of sterols” (priority 1977, dated 1980)", "key": {"[1]": {"test_system": "sterol biosynthesis in primary cultures of mouse liver cells", "assay": "Inhibition of sterol synthesis from [1-14C]acetate in primary cultures of liver cells", "assay_type": "cell-based", "details": "primary cultures of liver cells, read-out: Concentrations Required for 50% Inhibition of Sterol Synthesis", "procedure": "The effect of various 15-oxygenated sterols on sterol biosynthesis in L cells and in primary cultures of mouse liver cells was tested essentially under conditions described in detail previously [A. A. Kandutsch and H. W. Chen, J. Biol. Chem., Vol. 248, pp. 8408-8417 (1973) and A. A. Kandutsch and H. W. Chen, J. Biol. Chem., Vol. 249, pp. 6057-6061 (1974`)].\nThe primary liver cell cultures were prepared from 16-day-old (C57BL/6J fetuses and grown in chemically defined medium (serum-free) as described in the above cited publications. The L cells, a subline of NCTC clone 929 mouse fibroblasts, were grown in chemically defined medium (serum-free) as described in the publications. These L cells are transformed fibroblasts which are regarded as malignant since they will grow as tumors if injected into the mouse strain from which they were initially obtained.\nThe preparation of steroid-containing media, procedures for assays of the conversion of [1-^14 C]acetate into digitonin-precipitable sterols, fatty acids, and CO2 and methods for the measurement of DNA, protein, and HMG-CoA reductase were as described in the published articles. L cell cultures were preincubated with the 15-oxygenated sterols and their derivatives for 4 hours, then [1-^14 C]acetate was added at a concentration of 4 μmoles per ml (4 μCi per ml); or the L cell cultures were incubated for 5 hours with the 15-oxygenated sterols before they were harvested for determination of microsomal HMG-CoA reductase activity.\nConditions for incubating the 15-oxygenated sterols or their derivatives with liver cell cultures were similar to those described for L cell cultures except that the cultures were incubated with the test compounds for 12 hours before labeled acetate was added or before they were harvested for enzyme assay.\nThe test compounds were tested over a range of at least 4 concentrations and the assay was repeated until the concentration of test compound required to produce 50% inhibition was located on the steeply declining portion of an activity vs. concentration plot. To diminish any possible effects of generalized differences in cellular metabolism, the rates of sterol synthesis from [1-^14 C]acetate were calculated as the ratio of [^14 C]sterols to [^14 C]fatty acids as described in the two cited articles by Kandutsch and Chen."}, "[2]": {"assay": "Body weight of mice, ketone in diet (Example 47)", "assay_type": "in vivo, mouse", "details": "0.2% in diet; eight days; 7-week-old mice", "procedure": "[…] Five mice were fed the ketone at a level of 0.2% in a diet which was essentially free of animal sterols for eight days. Five control pair-fed mice were fed the same diet to which the ketone was not added. The mean plasma cholesterol concentration in the ketone group after the eight day experiment was 35.8(±3.6, standard error of mean) mg per 100 ml of plasma while the corresponding value for the pair-fed group was 114.4 (±3.4, standard error of mean). It should be noted that very closely matched pairfeeding is difficult to perform in mice of this age due to the small amounts of food which are consumed and which must be accurately determined in such experiments."}, "serum cholesterol": {"test_system": "serum cholesterol", "assay": "Effect on serum cholesterol levels in rats, daily subcutaneous injection (Examples 41, 42)", "assay_type": "in vivo, rat (male, Sprague-Dawley)", "details": "day 3", "procedure": "Male rats of the Sprague-Dawley strain were fed Purina rat chow ad libidum. The rats were maintained on a light (7 A.M.-6 P.M.) -dark (6 P.M.-7 A.M.) cycle throughout the study and for a period of at least 4 days prior to the initiation of the study.\n3β-Hexadecanoyloxy-5α-cholest-8(14)-en-15-one (5 mg; dissolved in 0.25 ml of triolein), hereafter referred to as the \"palmitate ester\", or 3β-hemisuccinoyloxy-5α-cholest-8(14)-en-15-one (5 mg; suspended in 0.25 ml of triolein through the use of a tight-fitting all-glass homogenizer), hereafter referred to as the \"hemisuccinate ester\", were administered subcutaneously once a day at about 12 P.M. to each of eight and six rats, respectively. Control animals (8) received daily injections of triolein (0.25 ml).\nBlood samples were taken from the rats periodically and the serum cholesterol concentrations measured, in duplicate, by the method of Abell et al., J. Biol. Chem., Vol. 195, pp. 357-366 ([…]).\nFollowing generally the procedure described in Example 41, 3β-Ethoxy-14α-ethyl-5α-cholest-7-en-15-one (5 mg) in triolein (0.25 ml) was administered subcutaneously once a day to each of eight rats. Control animals (8) received daily injections of triolein (0.25 ml).\nSimilarly, 5α-cholest-8(14)-en-3β-ol-15-one (2mg) in (0.2 ml) olive oil or 5.0 mg in 0.5 ml of olive oil) was administered subcutaneously once a day to each of a group of rats. The 2 mg dose was administered to 12 rats, while a like number of rats received daily injections of 0.2 ml olive oil. 5 mg doses were administered to each of 6 rats, while 6 control animals received daily injections of 0.5 ml olive oil. The rats used in this study initially weighed between 110 and 190 grams."}, "[3]": {"details": "2 mg s.c. once a day in 0.2 ml olive oil"}, "[4]": {"details": "5 mg s.c. once a day in 0.5 ml olive oil"}}, "data": [{"compound": "CC(C)CCC[C@@H](C)[C@H]1CC(=O)C2=C3CC[C@H]4C[C@@H](O)CC[C@]4(C)[C@H]3CC[C@@]21C", "note": "[5α-Cholest-8(14)-en-3β-ol-15-one, 5α-cholest-8(14)-en-3β-ol-15-one]", "values": [{"measurement": "IC50", "setting": "[1]", "result": 4, "unit": "µM"}, {"measurement": "average decrease in body weight (standard error of mean)", "setting": "[2]", "result": 5.9, "unit": "g"}, {"measurement": "% Reduction (relative to olive oil-treated rats)", "setting": "serum cholesterol; [3]", "result": 12, "unit": "%"}, {"measurement": "Serum Cholesterol (Mean ± S.E.M.)", "setting": "serum cholesterol; [3]", "result": "64.5 ± 2.5", "unit": "mg per 100 ml"}, {"measurement": "% Reduction (relative to olive oil-treated rats)", "setting": "serum cholesterol; [4]", "result": 22, "unit": "%"}, {"measurement": "Serum Cholesterol (Mean ± S.E.M.)", "setting": "serum cholesterol; [4]", "result": "59.6 ± 2.2", "unit": "mg per 100 ml"}]}]}
